Data: patent publication US8575201B2 (Boehringer Ingelheim International GmbH, priority 2010, dated 2013)

Legend:
[1] = tested on: biomarkers for myocardial infarction risk; conditions: clinical trial; cited from earlier work
[2] = tested on: synthesis of LTB4 in human whole blood; experiment: Human whole blood LTB4 production inhibition assay; assay type: cell-based; conditions: calcimycin stimulated, read-out: hWB LTB4 IC50
How it was run: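 Steps: compound plus heparinized human whole blood, 15 min at 37° C; add calcimycin to 20 μM final; incubate another 30 min at 37° C; centrifuge at low speed and collect plasma; measure LTB4 with a homogeneous time-resolved fluorescence immunoassay.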

[3] = molecular target: recombinant human FLAP protein (Homo sapiens (Human), UniProt P20292); experiment: FLAP binding assay (Scintillation Proximity Assay, displacement of [125I]L-691,831); conditions: read-out: FLAP SPA IC50
How it was run: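 Scintillation proximity displacement of an iodinated (125I) FLAP inhibitor by test compounds, using 100,000×g membrane fraction from lysed cells. Final beads 200 μg/well and protein 5 μg/well; plates shaken 2 h before reading.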

[4] = tested on: proteinuria; conditions: clinical trial, human glomerulonephritis; cited from earlier work
[5] = tested on: atherosclerotic plaque; conditions: oral dosing, high-fat diet from 2 to 6 months of age; cited from earlier work
[6] = tested on: atherosclerotic plaque; conditions: infusion, treated for four weeks; cited from earlier work

Chain of recombinant human FLAP protein (P20292 whole entry): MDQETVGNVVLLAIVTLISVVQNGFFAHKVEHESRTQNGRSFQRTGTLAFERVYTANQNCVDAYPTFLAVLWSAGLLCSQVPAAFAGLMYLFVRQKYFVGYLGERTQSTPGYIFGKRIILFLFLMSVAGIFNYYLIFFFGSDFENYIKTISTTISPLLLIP

SMILES: O=C(O)[C@@H](c1ccc(OCc2ccc3ccccc3n2)cc1)C1CCCC1 [DG-031]
- effect on biomarkers for myocardial infarction risk [1]: dose-dependent suppression of several biomarkers

SMILES: N#Cc1cc(-c2ccc(C3(c4noc(-c5cnn(C6COC6)c5)n4)CCC3)cn2)cnc1N [Example 167, 6′-Amino-5-{1-[5-(1-oxetan-3-yl-1H-pyrazol-4-yl)-[1,2,4]oxadiazol-3-yl]-cyclobutyl}-[2,3′]bipyridinyl-5′-carbonitrile]
- IC50 [2]: 680 nM
- IC50 [3]: 140 nM

SMILES: CNc1cnc(-c2ccc(C3(c4noc(-c5cnn(C)c5)n4)CCC3)cn2)cn1 [Example 168, Methyl-[5-(5-{1-[5-(1-methyl-1H-pyrazol-4-yl)-[1,2,4]oxadiazol-3-yl]-cyclobutyl}-pyridin-2-yl)-pyrazin-2-yl]-amine]
- IC50 [2]: 99 nM
- IC50 [3]: 33 nM

SMILES: COCCn1cc(-c2nc(C3(c4ccc(-c5cnc(N)cn5)nc4)CCC3)no2)cn1 [Example 171, 5-[5-(1-{5-[1-(2-Methoxy-ethyl)-1H-pyrazol-4-yl]-[1,2,4]oxadiazol-3-yl}-cyclobutyl)-pyridin-2-yl]-pyrazin-2-ylamine]
- IC50 [2]: 76 nM
- IC50 [3]: 50 nM

SMILES: Cn1cc(-c2nc(C3(c4ccc(-c5cnc(N)cn5)nc4)CCC3)no2)cn1 [Example 174, 5-(5-{1-[5-(1-Methyl-1H-pyrazol-4-yl)-[1,2,4]oxadiazol-3-yl]-cyclobutyl}-pyridin-2-yl)-pyrazin-2-ylamine]
- IC50 [2]: 74 nM
- IC50 [3]: 39 nM

SMILES: Cc1nc(N)ncc1-c1ccc(C2(c3noc(-c4cnn(CC(C)(C)O)c4)n3)CCC2)cn1 [Example 175, 1-[4-(3-{1-[6-(2-Amino-4-methyl-pyrimidin-5-yl)-pyridin-3-yl]-cyclobutyl}-[1,2,4]oxadiazol-5-yl)-pyrazol-1-yl]-2-methyl-propan-2-ol]
- IC50 [2]: 620 nM
- IC50 [3]: 830 nM

SMILES: CNc1cnc(-c2ccc(C3(c4noc(-c5cnn(C6COC6)c5)n4)CCC3)cn2)cn1 [Example 176, Methyl-[5-(5-{1-[5-(1-oxetan-3-yl-1H-pyrazol-4-yl)-[1,2,4]oxadiazol-3-yl]-cyclobutyl}-pyridin-2-yl)-pyrazin-2-yl]-amine]
- IC50 [2]: 73 nM
- IC50 [3]: 23 nM

SMILES: CNc1cnc(-c2ccc(C3(c4noc(-c5cnn(CC(C)(C)O)c5)n4)CCC3)cn2)cn1 [Example 177, 2-Methyl-1-[4-(3-{1-[6-(5-methylamino-pyrazin-2-yl)-pyridin-3-yl]-cyclobutyl}-[1,2,4]oxadiazol-5-yl)-pyrazol-1-yl]-propan-2-ol]
- IC50 [2]: 160 nM
- IC50 [3]: 32 nM

SMILES: CC(C)(C)Sc1c(CC(C)(C)C(=O)O)n(Cc2ccc(Cl)cc2)c2ccc(OCc3ccc4ccccc4n3)cc12 [MK-591]
- effect on proteinuria [4]: reduce proteinuria

SMILES: CC(C)c1ccc2c(c1)c(SC(C)(C)C)c(CC(C)(C)C(=O)O)n2Cc1ccc(Cl)cc1 [MK-886]
- decrease in plaque coverage in the aorta [5]: 56%
- decrease in plaque coverage in the aortic root [5]: 43%
- decrease in plaque area in the aortic root [6]: ~40%
